Assays:
[1] = pKa assessment of testosterone; details: from molecular structure
[2] = Solubility of testosterone in water, solvents and oils; details: maximum

For `C[C@]12CC[C@H]3[C@@H](CCC4=CC(=O)CC[C@@]43C)[C@@H]1CC[C@@H]2O` [Testosterone, 17β-Hydroxyandrost-4-en-3-one], the pKa [1] was “no pKa value in the range 1-14” and the “Solubility in castor oil pure” value [2] was at most 3.6%.

Reference: US11090312B2, “Methods of treating hypogonadism with transnasal testerosterone bio-adhesive gel formulations in male with allergic rhinitis, and methods for preventing an allergic rhinitis event” (Acerus Biopharma Inc., priority 2013, dated 2021)
